Results reported in patent publication US20230414732A1, “COMPOSITIONS OF EMBEDDED EPITOPE RANDOM PEPTIDES (EERP) FOR TREATMENT OF IMMUNE-MEDIATED CONDITIONS, AND METHODS OF USE” (PALENA THERAPEUTICS, INC., priority 2020, published 2023).

Experiments:
[1] = test system: MOG-induced EAE in C57B1/6 female mice; assay: Prophylactic treatment of MOG35-55-induced EAE, a mouse model of MS; type: in vivo; conditions: for Incidence of EAE: 500 μg single dose co-administered with MOG 35-55 in CFA, scored Day 7 to Day 28
From the text: FIG. 2 is a graph showing prophylactic treatment of MOG-induced EAE in mice (an animal model for multiple sclerosis (MS)) using an EERP according to the present invention. EAE was induced in C57B1/6 female mice at 10 weeks of age by MOG35-55 (Control; depicted as diamonds) and treated prophylactically by co-administration of Glatopa (depicted as triangles), PT-001 (YFAK random copolymer, depicted as open squares), or PT-002 (EERP consisting of linear random polypeptide YFAK with the peptide AYKAAA embedded in it; depicted as cross) at 500 μg/dose each. Mice (12 per treatment group) were monitored for signs of disease for 28 days post immunization. Numbers on the ordinate represent mean clinical score of clinical symptoms monitored for the days shown on the abscissa.
FIG. 3 is a graph showing prophylactic treatment of MOG-induced EAE in mice using two different doses of an EERP according to the present invention. […] Mice (10 per treatment group) were monitored for signs of disease for 28 days post immunization. Numbers on the ordinate represent mean clinical score of clinical symptoms monitored for the days shown on the abscissa.
The EERP of the invention is further tested in vivo in a prophylactic model of MS, EAE, which is induced in female mice of C57B1/6J strain by MOG 35-55 encephalitogenic peptide co-administered with the EERP in Complete Freund's Adjuvant. […] Disease severity is based on clinical observations and is assessed on the scale from 0 to 5. […]
Prophylactic treatment of EAE, a mouse model of MS. […] Mice (12 per treatment group) were monitored daily in a blind fashion starting from Day 7 for signs of disease for 28 days post immunization. […]
Prophylactic treatment of EAE, a mouse model of MS, by 2 different doses of EERP. […] Mice (10 per treatment group) were monitored daily in a blind fashion starting from Day 7 for signs of disease for 28 days post immunization. […]

[2] = test system: LPS-stimulated human monocytic cell line THP-1; assay: Inhibition of pro-inflammatory cytokine secretion by LPS-stimulated THP-1 cells (ELISA); type: cell-based; conditions: 1.5 hr pre-incubation, LPS 1 μg/mL 24 hr
Method: Cell-based assays. Human monocytic cell line THP-1 (ATCC, Manassas, VA) was cultured in RPMI media supplemented with 10% fetal bovine serum (FBS) and antibiotics penicillin/streptomycin in a 37° C. 5% CO 2 incubator. Cells were plated at 0.25×10^6 cells/well in a 24-well cell culture plate and pre-incubated for 1.5 hr with Glatopa, PT-001 or PT-002 at the final concentration 0.1 μg/mL or 10 μg/mL each, followed by addition of lipopolysaccharide (LPS) at the final concentration of 1 μg/mL and incubation for 24 hr in a 37° C. 5% CO2 incubator. Plates were centrifuged and supernatants (100 μL) were tested for levels of pro-inflammatory cytokines IL-1β, IL-6 and TNF-α using commercial ELISA kits (R&D System for IL-1β, BioLegend for IL-6 and TNF-α). […] Percent inhibition is calculated as 100-(cytokine concentration in presence of inhibitor/cytokine concentration without inhibitor*100).

relapsing forms of MS = conditions: cited from earlier work
[3] = test system: experimental allergic encephalomyelitis (EAE); conditions: mouse model for multiple sclerosis; cited from earlier work

Molecule	Incidence of EAE [1] [%]	Percent inhibition (%) IL-1b ([2]; 0.1 μg/mL compound) [%]	Percent inhibition (%) IL-6 ([2]; 0.1 μg/mL compound) [%]	Percent inhibition (%) TNF-a ([2]; 0.1 μg/mL compound) [%]	Percent inhibition (%) IL-1b ([2]; 10 μg/mL compound) [%]	Percent inhibition (%) IL-6 ([2]; 10 μg/mL compound) [%]	Percent inhibition (%) TNF-a ([2]; 10 μg/mL compound) [%]	Signs of disease (clinical score) ([1]; Example 2: 500 μg/dose, single dose in immunization emulsion, subcutaneous, 28 days post immunization)	Reduction in relapses (relapsing forms of MS)	Suppression of EAE [3]
glatiramer acetate [Glatopa]	67	22	−10	−162	42	−21	−37			
C[N+]1(C)CCC(OC(=O)C(O)(c2ccccc2)C2CCCC2)C1 (centres unmarked) [PT-001]	0	21	−8	−5	77	84	34	did not exhibit any signs of disease		
poly (Y, E, A, K) [Cop 1]									about 30%	capable of suppressing experimental allergic encephalomyelitis
